Where two headings read alike, the source gives them in different places.
How the values were obtained:
[1] = in vivo; conditions: male, Sprague-Dawley, rat, plasma, po, 2 mg/kg
Description: (§1) Serial blood samples were collected from three animals per group per timepoint prior to dosing and at 0.25, 0.5, 1, 2, 3 4, 6, 8, 10, 12, and 14-hours post dose.
(§2) Animals were fasted overnight prior to dose administration. Water was provided ad libitum. Food was returned after the collection of the 4-hour samples.
(§3) Doses (rounded to the nearest 0.001 mL) were calculated based on the pretreatment body weight (kg) and a dose volume of 10 mL/kg.
(§4) Serial blood samples (˜300 μL) were collected from three animals per group per timepoint into tubes containing sodium heparin prior to dosing and at 0.25, 0.5, 1, 2, 3, 4, 6, 8, 10, 12, and 14-hours post dose. […] Blood samples were stored on wet ice until being processed for plasma via centrifugation (3500 g for 10 minutes at 5° C.) within 30 minutes of collection.
(§5) The concentration-time data were analyzed to fit an extra-vascular (oral gavage) dosing plasma analysis model (200) using the software WinNonlin Phoenix version 6.3 (Pharsight).
(§6) Half-lives are reported if the correlation for the regression line, as measured by r squared, is ≥0.9, when rounded.

[2] = Brain concentrations and brain pharmacokinetics after a single oral (gavage) dose in fasted male Sprague-Dawley rats, LC-MS/MS; assay type: in vivo; conditions: for measurable brain concentrations: after 2 mg/kg oral; for concentration at 1 h: 1 hour post dose; for concentration at 4 h: 4 hour post dose; for concentration at 14 h: 14 hour post dose
Description: Water was provided ad libitum.
Immediately after the 1, 4, 8 and 14-hour blood collections, three animals/group were euthanized and the brain was dissected out of each rat. The brains were rinsed with saline and dried, placed in pre-weighed conical tubes, and flash frozen in liquid nitrogen. Brain weights were calculated for each sample.

[3] = Plasma pharmacokinetics after a single oral (gavage) dose in fasted male Sprague-Dawley rats, LC-MS/MS; conditions: for Concentration in plasma, Mean: fasted male Sprague-Dawley rats, n = 3/time point; for measurable plasma concentrations: after 2 mg/kg oral; for AUClast / T 1/2 (terminal half life): fasted male Sprague Dawley rats;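 for all read-outs here: plasma from heparinized blood sampled up to 14 h post dose, three rats per timepoint, parameters by non-compartmental analysis of mean concentration-time data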
Description: as §1, §2, §3, §4, §5, §6

[4] = male, Sprague-Dawley, rat, brain, po, 2 mg/kg, oral gavage 2 mg/kg, fasted male Sprague-Dawley rats, n = 3/time point
[5] = male, Sprague-Dawley, rat, brain, po, 2 mg/kg, brain, molecular weight corrected (caffeine values multiplied by 0.956), oral gavage 2 mg/kg, rats, read-out: AUClast,corr
[6] = male, Sprague-Dawley, rat, brain, po, 2 mg/kg, brain, molecular weight corrected (caffeine values multiplied by 0.956), oral gavage 2 mg/kg, rats, read-out: Cmax,corr
[7] = male, Sprague-Dawley, rat, brain, po, 2 mg/kg, brain, oral gavage 2 mg/kg, fasted male Sprague Dawley rats, read-out: AUClast
[8] = male, Sprague-Dawley, rat, brain, po, 2 mg/kg, brain, oral gavage 2 mg/kg, fasted male Sprague Dawley rats, read-out: Cmax
[9] = male, Sprague-Dawley, rat, brain, po, 2 mg/kg, oral dose 2 mg/kg, rats, read-out: AUClast in brain
[10] = rat, brain/plasma, oral gavage 2 mg/kg, fasted male Sprague Dawley rats, read-out: Ratio Brain/Plasma Cmax
[11] = rat, brain, oral gavage 2 mg/kg, fasted male Sprague Dawley rats
[12] = rat, brain, oral gavage 2 mg/kg, fasted male Sprague Dawley rats, read-out: Ratio Brain/Plasma AUClast
[13] = plasma, molecular weight corrected (caffeine values multiplied by 0.956), oral gavage 2 mg/kg, rats
[14] = in words, molecular weight corrected, oral 2 mg/kg, rats

SMILES | AUC(0-inf) [1] [ng·h/mL] | AUC(0-t) [1] [ng·h/mL] | Cmax [1] [ng/mL] | Tmax [1] [h] | concentration at 0.25 h [1] [ng/mL] | concentration at 0.5 h [1] [ng/mL] | concentration at 1 h [1] [ng/mL] | concentration at 2 h [1] [ng/mL] | concentration at 3 h [1] [ng/mL] | concentration at 4 h [1] [ng/mL] | half-life [1] [h] | measurable brain concentrations ([2]; in words, rats) | concentration at 1 h [2, 4] [ng/g] | concentration at 4 h [2, 4] [ng/g] | concentration at 14 h [2, 4] [ng/g] | AUC(0-t) [2, 5] [ng·h/mL] | Cmax [2, 6] [ng/mL] | AUC(0-t) [2, 7] [ng·h/mL] | Cmax [2, 8] [ng/mL] | AUC(0-t) [2, 9] [ng·h/mL] | other results
Cn1c(=O)c2c(ncn2C)n(C)c1=O [Caffeine, reference compound] | 16000 | 16000 | 2600 | 1 | 2420 | 2410 | 2640 | 2070 | 2030 | 1820 | 1.9 | detected in all animals evaluated at each time point through 14 hours post dose | 1910 | 1210 | 62.6 | 10500 | 1820 | 11000 | 1900 | 11000 | concentration at 8 h ([2]; male, Sprague-Dawley, rat, brain, po, 2 mg/kg, 8 hour post dose, oral gavage 2 mg/kg, fasted male Sprague-Dawley rats, n = 3/time point): 553 ng/g; Kp [2, 10]: 0.73; AUC(0-inf) [2, 11]: 11000 ng·h/mL; Tmax [2, 11]: 1 h; Kp [2, 12]: 0.69; Concentration in plasma, Mean ([3]; 8 hour post dose, oral gavage 2 mg/kg): 849 ng/mL; Concentration in plasma, Mean ([3]; 10 hour post dose, oral gavage 2 mg/kg): 344 ng/mL; Concentration in plasma, Mean ([3]; 12 hour post dose, oral gavage 2 mg/kg): 171 ng/mL; Concentration in plasma, Mean ([3]; 14 hour post dose, oral gavage 2 mg/kg): 97.1 ng/mL; measurable plasma concentrations ([3]; in words, rats): detected in all animals evaluated at each time point through 14 hours post dose; AUCinf, corr [3, 13]: 15296 ng·h/mL; AUClast, corr [3, 13]: 15296 ng·h/mL; AUClast ([3]; plasma, oral gavage 2 mg/kg): 16000 ng·h/mL; T 1/2 (terminal half life) ([3]; plasma, oral gavage 2 mg/kg): 1.9 h
[2H]C([2H])([2H])n1c(=O)c2c(ncn2C([2H])([2H])[2H])n(C([2H])([2H])[2H])c1=O [Compound D9-Caffeine, D9-caffeine] | 27000 | 22000 | 2400 | 3 | 1720 | 1740 | 2090 | 2340 | 2360 | 2270 | 5 | detected in all animals evaluated at each time point through 14 hours post dose | 1540 | 1640 | 463 | 16000 | 1600 | 16000 | 1600 | 16000 | concentration at 6 h [1]: 1790 ng/mL; concentration at 8 h [1]: 1550 ng/mL; concentration at 12 h [1]: 897 ng/mL; concentration at 14 h [1]: 682 ng/mL; total brain exposure (AUClast,corr) higher than caffeine ([2]; brain, molecular weight corrected, oral 2 mg/kg, rats): approximately 52%; brain Cmax compared with caffeine [2, 14]: slightly lower; AUC exposure in brain compared with a corresponding dose of caffeine ([2]; in words, oral 2 mg/kg, rats): higher; Kp [2, 10]: 0.67; Tmax [2, 11]: 4 h; Kp [2, 12]: 0.73; measurable plasma concentrations ([3]; in words, rats): detected in all animals evaluated at each time point through 14 hours post dose; plasma Cmax compared with caffeine [3, 14]: similar; systemic (AUC) exposure in plasma compared with a corresponding dose of caffeine ([3]; in words, oral 2 mg/kg, rats): higher; half-life compared with a corresponding dose of caffeine ([3]; in words, plasma, oral 2 mg/kg, rats): longer; AUCinf, corr [3, 13]: 27000 ng·h/mL; AUClast, corr [3, 13]: 22000 ng·h/mL; Cmax, corr [3, 13]: 2400 ng/mL; total systemic exposure (AUCinf) higher than caffeine ([3]; plasma, molecular weight corrected, oral 2 mg/kg, rats): approximately 77%; AUClast ([3]; plasma, oral gavage 2 mg/kg): 22000 ng·h/mL; T 1/2 (terminal half life) ([3]; plasma, oral gavage 2 mg/kg): 5 h

— patent publication US20200390128A1 (Lennham Pharmaceuticals, Inc., priority 2019, published 2020)
